Data reported in patent US11702401B2, “Compounds and methods of use” (Medivation Technologies LLC, priority 2014, dated 2023).

Assays:
[1] = Plasma and brain concentrations in male mice at 0.5 and 1 h; assay type: in vivo
[2] = Pharmacokinetics and bioavailability in male mice, oral single dose; assay type: in vivo; settings: oral 10 mg/kg

| Brain Concentration ([1]; IV, 0.5 h) [nM] | Plasma Concentration ([1]; IV, 0.5 h) [nM] | Brain Concentration ([1]; IV, 1 h) [nM] | Plasma Concentration ([1]; IV, 1 h) [nM] | Brain Concentration ([1]; PO, 0.5 h) [nM] | Plasma Concentration ([1]; PO, 0.5 h) [nM] | Brain Concentration ([1]; PO, 1 h) [nM] | Plasma Concentration ([1]; PO, 1 h) [nM] | AUClast [2] [µM·h] | Tmax [2] [min] | SMILES |
| --- | --- | --- | --- | --- | --- | --- | --- | --- | --- | --- |
| 48 | 3040 | 19 | 1230 | 48 | 3420 | 25 | 1690 | 7.50 | 30 | C[C@H](O)CNC(=O)c1cnccc1Nc1cc(-c2cc(Cl)ccc2F)ncc1N(C)C (single isomer, unassigned) [16a] |
| 7 | 1690 | 5 | 967 | 20 | 7070 | 15 | 3530 |  |  | CC(C)c1cnc(-c2cc(Cl)ccc2F)cc1Nc1ccncc1C(=O)NC(CO)CO [compound 22, 4-[[2-(5-chloro-2-fluoro-phenyl)-5-isopropyl-4-pyridyl]amino]-N-[2-hydroxy-1-(hydroxymethyl)ethyl]pyridine-3-carboxamide] |
